pIC50: −log10 of the molar value. Structures can show the parent of a compound that is named as a salt. Each block holds one compound with its values, some of them ahead of it.
What was measured:
[1] = molecular target: T1, recombinant GST-Pim-1 kinase (Homo sapiens, UniProt P11309); test: In vitro system for measurement of Pim-1 kinase activity (phosphorylation of biotinylated p21 peptide, OD450); type: biochemical; settings: ATP 10 μM, 25° C., 30 minutes; read-out: 50% inhibitory concentration (IC50) of Pim-1 kinase activity
T1 construct: GST
Description: The sensitivity (IC50: inhibitory concentration of 50% of activity) and concentration dependence of these novel compounds to inhibition of Pim-1 activity were studied (using the following system).
In Vitro System for Measurement of Pim-1 Kinase Activity:
(1) Add a biotinylated p21 peptide (1 mM) as a substrate to be phosphorylated by Pim-1 and a recombinant GST-Pim-1 kinase (18 μg/ml) to a kinase buffer.
(2) Add a test compound (dissolved in 2% DMSO) or 2% DMSO (a solvent control) thereto.
(3) Add ATP (10 μM) thereto and incubate the mixture at 25° C. for 30 minutes (initiate a kinase reaction).
(4) Add EDTA (10 mM) thereto to stop the reaction.
(5) Add 10 μl of the kinase reaction mixture to a 96-well plate (which has been blocked in advance) coated with avidin, and incubate the plate at room temperature for 60 minutes.
(6) Wash the wells with a washing buffer three times.
(7) Add a diluted solution (1:500) of an antibody which recognizes phosphorylated p21 (Thr145) to the wells in an amount of 100 μl per well and incubate the plate for 90 minutes.
(8) Wash the wells with a washing buffer three times.
(9) Add a diluted solution (1:2000) of a secondary antibody which […] to the wells in an amount of 100 μl per well and incubate the plate for 60 minutes.
(10) Wash the wells with a washing buffer five times.
(11) Add a substrate (TMB) for peroxidase to the wells and incubate the plate for 8 minutes. Then, stop the reaction with 2 M H2SO4 and perform the colorimetric determination using a microplate reader (OD450).

[2] = system: uterine cancer cell line (HeLa); test: Cytotoxicity, MTS method; type: cell-based; settings: at 100 μM and 10 μM, even at 1 μM to some cell lines, FIG. 2
Description: (§1) Various cancer cell lines were seeded in 96-well plates at a density of 3 to 5000 cells per well, and on the following day, any of the novel compounds was added thereto such that the final concentrations of the compounds were 0 to 100 μM (the concentration of the solvent DMSO was 0.5%) and the plates were incubated for 24 to 72 hours. The cytotoxicity to cancer cells can be examined by calculating the viable cell count by the MTS method (CellTiter 96 Aqueous One Solution Cell Proliferation Assay, Promega) after incubation. Here, the MTS method is a viable cell count calculation method using the fact that a tetrazolium compound (MTS) is converted into a chromogenic formazan product by an oxidoreductase of viable cells. In the measurement method, to each well of a 96-well plate containing 100 μl of a culture medium and sample cells, 20 μl of CellTiter 96 Aqueous One Solution Reagent is added and the plate was incubated in an incubator at 37° C. for 90 to 120 minutes, and then, the absorbance at 490 nm is measured using a 96-well plate reader.

[3] = system: oral squamous cell carcinoma cell line (HSC-3); test: Cytotoxicity, MTS method; type: cell-based; settings: at 100 μM and 10 μM, even at 1 μM to some cell lines, FIG. 2
Description: as §1

[4] = system: pancreatic cancer cell line (MiaPaCa-2); test: Cytotoxicity, MTS method; type: cell-based; settings: at 100 μM and 10 μM, even at 1 μM to some cell lines, FIG. 2
Description: as §1

[5] = system: esophageal squamous cell carcinoma cell line (T.Tn); test: Cytotoxicity, MTS method; type: cell-based
Description: as §1

[6] = system: lung cancer cell line (A549); test: Cytotoxicity, MTS method; type: cell-based
Description: as §1

[7] = system: normal renal cell line (293); test: Cytotoxicity, MTS method; type: cell-based; settings: at 100 μM and 10 μM, even at 1 μM to some cell lines, FIG. 2
Description: as §1

[8] = system: prostate cancer cell line (PC-3); test: Cytotoxicity, MTS method, time course; type: cell-based; settings: time course observation of viable cell count, FIG. 3
Description: as §1

[9] = system: pancreatic cancer cell line (BxPC-3); test: Cytotoxicity, MTS method, time course; type: cell-based; settings: FIG. 4
Description: as §1

T1 sequence (P11309 whole entry): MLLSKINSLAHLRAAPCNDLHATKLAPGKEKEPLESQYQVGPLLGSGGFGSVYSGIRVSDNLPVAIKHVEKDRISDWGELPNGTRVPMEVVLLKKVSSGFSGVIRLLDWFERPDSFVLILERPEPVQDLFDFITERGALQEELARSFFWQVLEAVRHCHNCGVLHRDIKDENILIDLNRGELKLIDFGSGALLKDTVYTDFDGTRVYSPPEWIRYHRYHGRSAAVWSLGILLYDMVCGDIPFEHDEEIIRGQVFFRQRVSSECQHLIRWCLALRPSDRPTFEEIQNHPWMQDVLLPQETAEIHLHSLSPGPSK

- pIC50 [1]: 6.10
SMILES: CC(=O)N1C(=O)/C(=C/c2ccc(/C=C3/C(=O)Nc4ccccc43)o2)c2ccccc21 [compound (3), (3E)-3-((5-((E)-(1-acetyl-2-oxoindolin-3-ylidene)methyl)furan-2-yl)methylene)indolin-2-one]

- pIC50 [1]: 7.59
SMILES: CCCC(=O)N1C(=O)/C(=C/c2ccc(/C=C3/C(=O)N(C(=O)CCC)c4ccccc43)o2)c2ccccc21 [compound (7), (3E)-1-butyryl-3-[((5E)-((1-butyryl-2-oxoindolin-3-ylidene)methyl)furan-2-yl)methylene]indolin-2-one]

- pIC50 [1]: 7.30
SMILES: O=C1Nc2ccccc2/C1=C\c1ccc(/C=C2/C(=O)Nc3ccccc32)o1 [compound (1), (3E)-3[(5-((E)-(2-oxoindolin-3-ylidene)methyl)furan-2-yl)methylene]indoline-2-one]
- cytotoxicity [2]: remarkable cytotoxicity
- cytotoxicity [3]: remarkable cytotoxicity
- cytotoxicity [4]: remarkable cytotoxicity
- cytotoxicity ([5]; T.Tn, at 100 μM and 10 μM, even at 1 μM to some cell lines, FIG. 2): remarkable cytotoxicity
- cytotoxicity ([6]; A549, at 100 μM and 10 μM, even at 1 μM to some cell lines, FIG. 2): remarkable cytotoxicity
- cytotoxicity [7]: remarkable cytotoxicity
- cell lethal effect [8]: has a cell lethal effect

- pIC50 [1]: 8.00
SMILES: CC(=O)N1C(=O)/C(=C/c2ccc(/C=C3/C(=O)N(C(C)=O)c4ccccc43)o2)c2ccccc21 [compound (2), (3E)-1-acetyl-3-[((5E)-((1-acetyl-2-oxoindolin-3-ylidene)methyl)furan-2-yl)methylene]indolin-2-one]
- cell proliferation inhibitory effect and cell lethal effect ([5]; esophageal squamous cell carcinoma cell line (T.Tn), time course, FIG. 4): has a cell proliferation inhibitory effect and a cell lethal effect
- cell proliferation inhibitory effect and cell lethal effect ([6]; lung cancer cell line (A549), time course, FIG. 4): has a cell proliferation inhibitory effect and a cell lethal effect
- cell proliferation inhibitory effect and cell lethal effect [9]: has a cell proliferation inhibitory effect and a cell lethal effect

- pIC50 [1]: 6.24
SMILES: CC(=O)N1C(=O)/C(=C/c2ccc(/C=C3/C(=O)Nc4cc(C(=O)O)ccc43)o2)c2ccccc21 [compound (10), (3E)-3-((5-((E)-(1-acetyl-2-oxoindolin-3-ylidene)methyl)furan-2-yl)methylene)-2-oxoindoline-6-carboxylic acid sodium salt]

- pIC50 [1]: 5.85
SMILES: CC(=O)N1C(=O)/C(=C/c2ccc(/C=C3/C(=O)Nc4ccc(C(=O)O)cc43)o2)c2ccccc21 [compound (9), (3E)-3-((5-((E)-(1-acetyl-2-oxoindolin-3-ylidene)methyl)furan-2-yl)methylene)-2-oxoindoline-5-carboxylic acid sodium salt]
